How the values were obtained:
PARP1 = PARP1 (Homo sapiens (Human), UniProt P09874); assay: Biochemical fluorescence polarization (FP) assay, PARPi-FL displacement, PARP1; assay type: binding; conditions: 20 nM protein, 3 nM PARPi-FL, 4 h at room temperature
Protocol: (§1) To characterize our compounds, we utilized an assay measuring the displacement of a commercially available fluorescently labeled PARP 1/2 inhibitor (PARPi-FL, Tocris Biosciences, #6461) as exemplified in assays performed in WO2014/064149 and WO2021/013735A1. The assay was performed utilizing the following method: Compounds were dissolved in DMSO an Echo550 liquid handler was utilized to make serial dilations in the desired concentration range in Optiplate-384F plates. 100% DMSO was used for the high (with protein) and low (without protein) control samples. 20 nL of compound or DMSO alone was added to individual assay plate wells. […] The PARPi-FL was then added at a final concentration of 3 nM. The assay plate is centrifuged at 1000 rpm for 1 min and incubated for 4 h at room temperature. […] XLFit (equation 201) is used to calculate a reported IC50 for each compound.

DLD-1 BRCA2(−/−) cells = assay: Cell growth inhibition assay (CellTiter-Glo), DLD-1 BRCA2(−/−); assay type: cell-based; conditions: Homo sapiens, DLD-1, 168 h; cell viability, CellTiter Glo 2.0, 7 days
Protocol: The objective of this study is to evaluate the effect of compound disclosed herein on cell proliferation through the cell viability assay in DLD-1 BRCA2(−/−) and parental isogenic pair and MDA-MB-436 (mutated BRCA1) cell lines.
DLD-1 BRCA2(−/−) and parental isogenic pair were cultured in RPMI 1640 supplemented with 10% fetal bovine serum (FBS), and MDA-MB-436 cells were cultured in DMEM supplemented with 10% FBS. Both are culture at 37° C. with 5% CO2. […] The cells were seeded into the plate in the density of 50 cells/well (DLD-1 parental), 200 cells/well (DLD-1 BRCA2−/−), or 500 cells/well (MDA-MB-436). After a short spun, the cells were cultured in a well moisturized incubator at 37° C. with 5% CO2 for 7 days without disturbance. The cell viability was measured by CellTiter Glo 2.0 assay kit (Promega, G9243), and growth inhibition rate was calculated and plotted against final compound concentration, and the data were fitted in Xfit to generate IC50.

[1] = system: MDA-MB-436 (mutated BRCA1) cells; assay: Cell growth inhibition assay (CellTiter-Glo), MDA-MB-436; assay type: cell-based; conditions: Homo sapiens, MDA-MB-436, 168 h; cell viability, CellTiter Glo 2.0, 7 days
Excerpt: (§2) The objective of this study is to evaluate the effect of compound disclosed herein on cell proliferation through the cell viability assay in DLD-1 BRCA2(−/−) and parental isogenic pair and MDA-MB-436 (mutated BRCA1) cell lines. The CellTiter-Glo (CTG) based cell viability assay is designed to determine the number of viable cells in the culture because of compound effect, by quantifying ATP, which indicates the presence of metabolically active cells.
(§3) DLD-1 BRCA2(−/−) and parental isogenic pair were cultured in RPMI 1640 supplemented with 10% fetal bovine serum (FBS), and MDA-MB-436 cells were cultured in DMEM supplemented with 10% FBS. Both are culture at 37° C. with 5% CO2. Invention compounds were distributed to the 384 well plate (Corning, 3764) using Echo acoustic liquid handler to form a 1:3 serially diluted final concentration with top dose of 10 or 30 μM. The cells were seeded into the plate in the density of 50 cells/well (DLD-1 parental), 200 cells/well (DLD-1 BRCA2−/−), or 500 cells/well (MDA-MB-436). After a short spun, the cells were cultured in a well moisturized incubator at 37° C. with 5% CO2 for 7 days without disturbance. The cell viability was measured by CellTiter Glo 2.0 assay kit (Promega, G9243), and growth inhibition rate was calculated and plotted against final compound concentration, and the data were fitted in Xfit to generate IC50.

PARP2 = PARP2 (Homo sapiens (Human), UniProt Q9UGN5); assay: Biochemical fluorescence polarization (FP) assay, PARPi-FL displacement, PARP2; assay type: binding; conditions: 20 nM protein, 3 nM PARPi-FL, 4 h at room temperature
Protocol: as §1

[2] = hHEP stability, predicted human hepatic clearance; assay type: in vitro ADME; conditions: well-stirred model, 0.5×10^6 viable cells/mL
Protocol: Working stocks of individual test articles were prepared at concentrations of 100 μM by diluting 10 mM stocks prepared in DMSO 100-fold (v:v) into ACN/H2O (50/50, v:v). Human cryopreserved hepatocytes were thawed in a 37° C. water bath in <2 min., suspended in thawing media, and then centrifuged at 100×g for 10 min. Thawing media was aspirated, and pelleted hepatocytes were resuspended into incubation media at 1.5×10^6 cells/mL. Cell viability was determined using an Acridine Orange/Propidium Iodine stain, and hepatocytes were further diluted with incubation media to 0.5×10^6 viable cells/mL. Hepatocyte aliquots of 198 μL were added to wells of a 96-well plate, and test article incubations were initiated by the addition of 2 μL of 100 μM working stocks. Plates were incubated at 37° C. in a 5% CO2 atmosphere at 95% relative humidity on an orbital shaker at 300 rpm. Incubations were performed in duplicate. Following incubation, aliquots of individual reactions were terminated by addition of ACN containing internal standards at 0, 30-, 60-, 90-, 120-, and 240-min. Precipitated protein was pelleted via refrigerated centrifugation. Supernatants were diluted into an equal volume of pure water and mixed well prior to analysis via LC-MS/MS. In vitro intrinsic clearances (CLint) in μL/min/10^6 cells were determined for each incubation from calculated in vitro half-lives determined using a standard log-linear regression approach. In vitro CLint values were scaled up using the following physiological scaling factors: 99×10^6 cells/g human liver and 25.7 g human liver/kg body weight.

MDR1 = MDR1 (Homo sapiens (Human), UniProt P08183); assay: In vitro human transporter efflux, MDCKII cells expressing MDR1; assay type: in vitro ADME; conditions: for Papp A→B at 2 h, 10 μM: MDCK-MDR1, pH 7.4, apical-to-basolateral, pH7.4, read-out: MDCK-MDR1 Papp AB; for Papp A→B at 2 h, 10 μM / Papp B→A at 2 h, 10 μM: 2-hour incubation; for Papp B→A at 2 h, 10 μM: MDCK-MDR1, pH 7.4, basolateral-to-apical, pH7.4, read-out: MDCK-MDR1 Papp BA; for efflux ratio at 2 h, 10 μM: MDCK-MDR1, pH 7.4, efflux ratio Papp BA/Papp AB
Protocol: (§4) Madin-Darby canine kidney (MDCKII) cells expressing either MDR1 or BCRP were seeded onto Corning HTS Transwell® 96-well polycarbonate permeable (0.4 μm pore) supports at a density of 545,000 cells/cm^2. Cells were incubated for 4-8 days prior to assay, and monolayer integrity was assessed by measuring transepithelial electrical resistance (TEER). […] The final organic solvent concentration was 0.5% (v/v). Bidirectional (apical-to-basolateral and basolateral-to-apical) flux of the test and reference compounds was determined over a 2-hour incubation at 37° C. and 5% CO2 with a relative humidity of 95%. At the end of the incubation, samples from the apical and basolateral side were taken and then precipitated with acetonitrile containing internal standard. After centrifugation at 3200×g, supernatants were diluted 1:1 (v/v) with water and subjected to analysis via HPLC-MS/MS.
(§5) Apparent permeability (Papp, ×10^−6 cm/s) was calculated for all transport assays using the following equation: […]
(§6) Efflux ratio was determined by calculating the ratio of the Papp in the basolateral-to-apical direction to the Papp in the apical-to-basolateral direction using the following equation: […]

[3] = HLM stability, predicted human hepatic clearance; assay type: in vitro ADME; conditions: well-stirred model, 1 μM, 0.5 mg/mL microsomal protein, NADPH
Protocol: Working stocks of individual test articles were prepared at a concentration of 100 μM by diluting 10 mM stocks prepared in DMSO 100-fold (v:v) into ACN. Thawed hepatic microsomes were suspended in 100 mM potassium phosphate buffer, pH 7.4 to a microsomal protein concentration of 0.562 mg/mL. Diluted microsomes were combined with a solution of 10 mM NADPH, and the mixture was pre-warmed to 37° C. for 8 min. Reactions were initiated by addition of the test article working stocks to achieve a final test article concentration of 1 μM. Final microsomal protein and NADPH concentrations were 0.5 mg/mL and 1 mM, respectively. Incubations containing NADPH were run in duplicate. Test article losses mediated by non-CYP mechanisms were evaluated in a parallel set of incubations run in the absence of NADPH. Incubations lacking NADPH consisted of 1 replicate per test article. Following incubation in a 37° C. water bath, aliquots of individual reactions were quenched with cold ACN containing internal standards at […], 15-, 30-, 60-, 90-, and 120-min. Precipitated protein was pelleted via refrigerated centrifugation. Supernatants were diluted into an equal volume of pure water and mixed well prior to analysis via LC-MS/MS. In vitro intrinsic clearances (CLint) in μL/min/mg were determined for each incubation from calculated in vitro half-lives determined using a standard log-linear regression approach. In vitro CLint values were scaled up using the following physiological scaling factors: 40 mg microsomal protein/g human liver and 25.7 g human liver/kg body weight.

BCRP = BCRP (Homo sapiens (Human), UniProt Q9UNQ0); assay: In vitro human transporter efflux, MDCKII cells expressing BCRP; assay type: in vitro ADME; conditions: for Papp A→B at 2 h, 10 μM: pH 7.4, apical-to-basolateral, pH7.4, read-out: BCRP Papp AB; for Papp A→B at 2 h, 10 μM / Papp B→A at 2 h, 10 μM: 2-hour incubation; for Papp B→A at 2 h, 10 μM: pH 7.4, basolateral-to-apical, pH7.4, read-out: BCRP Papp BA; for efflux ratio at 2 h, 10 μM: pH 7.4, efflux ratio Papp BA/Papp AB
Protocol: as §4, §5, §6

DLD-1 parental cells = assay: Cell growth inhibition assay (CellTiter-Glo), DLD-1 parental; assay type: cell-based; conditions: Homo sapiens, DLD-1, 168 h; cell viability, CellTiter Glo 2.0, 7 days
Excerpt: as §2, §3

Chain of BCRP (Q9UNQ0 whole entry): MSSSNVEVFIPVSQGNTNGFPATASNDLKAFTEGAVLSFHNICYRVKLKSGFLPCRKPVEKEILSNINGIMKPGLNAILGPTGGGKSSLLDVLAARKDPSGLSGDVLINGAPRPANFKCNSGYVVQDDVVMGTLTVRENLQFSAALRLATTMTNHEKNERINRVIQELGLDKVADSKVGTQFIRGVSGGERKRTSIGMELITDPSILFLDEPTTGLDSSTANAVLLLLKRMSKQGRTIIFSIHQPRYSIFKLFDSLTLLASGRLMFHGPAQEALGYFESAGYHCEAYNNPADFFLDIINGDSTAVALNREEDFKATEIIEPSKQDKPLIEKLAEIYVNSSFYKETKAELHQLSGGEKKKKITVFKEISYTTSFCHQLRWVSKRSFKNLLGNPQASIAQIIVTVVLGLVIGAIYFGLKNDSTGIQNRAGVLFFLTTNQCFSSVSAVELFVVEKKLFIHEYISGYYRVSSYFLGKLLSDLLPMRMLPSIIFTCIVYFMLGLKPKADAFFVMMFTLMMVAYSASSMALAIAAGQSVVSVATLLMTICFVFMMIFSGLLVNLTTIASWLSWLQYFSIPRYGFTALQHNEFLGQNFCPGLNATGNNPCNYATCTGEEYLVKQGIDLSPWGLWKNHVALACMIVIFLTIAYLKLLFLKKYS
Chain of MDR1 (P08183 whole entry): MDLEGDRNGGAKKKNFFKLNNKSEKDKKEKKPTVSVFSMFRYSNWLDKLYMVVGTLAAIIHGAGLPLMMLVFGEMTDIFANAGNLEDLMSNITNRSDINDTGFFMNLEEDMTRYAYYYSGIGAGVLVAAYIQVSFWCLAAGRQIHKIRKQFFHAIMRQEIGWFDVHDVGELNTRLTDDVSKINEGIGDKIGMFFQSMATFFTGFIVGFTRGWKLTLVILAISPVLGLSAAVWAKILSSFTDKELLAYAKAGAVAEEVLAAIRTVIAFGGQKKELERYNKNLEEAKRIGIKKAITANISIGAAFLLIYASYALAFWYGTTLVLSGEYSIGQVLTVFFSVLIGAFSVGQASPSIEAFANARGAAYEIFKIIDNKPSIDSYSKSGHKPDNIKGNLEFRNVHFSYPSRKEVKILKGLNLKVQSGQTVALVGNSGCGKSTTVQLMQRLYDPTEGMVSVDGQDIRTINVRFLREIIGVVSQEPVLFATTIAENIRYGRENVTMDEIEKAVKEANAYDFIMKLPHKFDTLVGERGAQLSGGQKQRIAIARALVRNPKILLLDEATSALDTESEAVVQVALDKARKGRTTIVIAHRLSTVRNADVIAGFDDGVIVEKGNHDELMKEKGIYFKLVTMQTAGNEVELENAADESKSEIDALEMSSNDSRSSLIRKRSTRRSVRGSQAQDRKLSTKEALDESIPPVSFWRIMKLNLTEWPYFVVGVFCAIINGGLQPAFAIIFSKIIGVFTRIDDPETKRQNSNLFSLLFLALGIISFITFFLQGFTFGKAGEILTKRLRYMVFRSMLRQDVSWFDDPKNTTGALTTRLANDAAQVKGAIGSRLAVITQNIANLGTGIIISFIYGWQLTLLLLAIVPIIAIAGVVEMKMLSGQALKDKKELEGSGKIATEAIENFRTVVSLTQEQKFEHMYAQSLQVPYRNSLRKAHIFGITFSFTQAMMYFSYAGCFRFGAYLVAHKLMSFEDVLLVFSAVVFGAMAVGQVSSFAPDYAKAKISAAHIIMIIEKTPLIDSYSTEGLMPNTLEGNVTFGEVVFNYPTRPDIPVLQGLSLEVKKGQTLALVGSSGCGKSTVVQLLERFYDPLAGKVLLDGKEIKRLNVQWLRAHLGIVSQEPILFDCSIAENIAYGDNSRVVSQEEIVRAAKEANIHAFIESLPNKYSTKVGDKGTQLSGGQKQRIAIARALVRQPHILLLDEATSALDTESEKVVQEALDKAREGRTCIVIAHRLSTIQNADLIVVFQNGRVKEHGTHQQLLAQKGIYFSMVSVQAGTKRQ
Chain of PARP2 (Q9UGN5 whole entry): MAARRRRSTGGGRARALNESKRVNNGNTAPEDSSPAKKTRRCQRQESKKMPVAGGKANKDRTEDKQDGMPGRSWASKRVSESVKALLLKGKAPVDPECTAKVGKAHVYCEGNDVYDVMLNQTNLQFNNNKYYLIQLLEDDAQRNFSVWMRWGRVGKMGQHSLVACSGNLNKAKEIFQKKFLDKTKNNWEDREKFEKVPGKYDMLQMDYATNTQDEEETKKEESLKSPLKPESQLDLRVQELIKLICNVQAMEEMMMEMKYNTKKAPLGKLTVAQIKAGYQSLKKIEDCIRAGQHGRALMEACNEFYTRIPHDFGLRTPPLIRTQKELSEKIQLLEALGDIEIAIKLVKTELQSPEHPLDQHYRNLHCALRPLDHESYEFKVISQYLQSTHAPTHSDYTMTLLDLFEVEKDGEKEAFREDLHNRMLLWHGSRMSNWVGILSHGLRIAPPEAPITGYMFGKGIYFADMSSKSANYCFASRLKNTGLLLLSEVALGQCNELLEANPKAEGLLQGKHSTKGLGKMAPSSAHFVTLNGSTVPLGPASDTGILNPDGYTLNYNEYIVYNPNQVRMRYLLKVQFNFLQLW
Chain of PARP1 (P09874 whole entry): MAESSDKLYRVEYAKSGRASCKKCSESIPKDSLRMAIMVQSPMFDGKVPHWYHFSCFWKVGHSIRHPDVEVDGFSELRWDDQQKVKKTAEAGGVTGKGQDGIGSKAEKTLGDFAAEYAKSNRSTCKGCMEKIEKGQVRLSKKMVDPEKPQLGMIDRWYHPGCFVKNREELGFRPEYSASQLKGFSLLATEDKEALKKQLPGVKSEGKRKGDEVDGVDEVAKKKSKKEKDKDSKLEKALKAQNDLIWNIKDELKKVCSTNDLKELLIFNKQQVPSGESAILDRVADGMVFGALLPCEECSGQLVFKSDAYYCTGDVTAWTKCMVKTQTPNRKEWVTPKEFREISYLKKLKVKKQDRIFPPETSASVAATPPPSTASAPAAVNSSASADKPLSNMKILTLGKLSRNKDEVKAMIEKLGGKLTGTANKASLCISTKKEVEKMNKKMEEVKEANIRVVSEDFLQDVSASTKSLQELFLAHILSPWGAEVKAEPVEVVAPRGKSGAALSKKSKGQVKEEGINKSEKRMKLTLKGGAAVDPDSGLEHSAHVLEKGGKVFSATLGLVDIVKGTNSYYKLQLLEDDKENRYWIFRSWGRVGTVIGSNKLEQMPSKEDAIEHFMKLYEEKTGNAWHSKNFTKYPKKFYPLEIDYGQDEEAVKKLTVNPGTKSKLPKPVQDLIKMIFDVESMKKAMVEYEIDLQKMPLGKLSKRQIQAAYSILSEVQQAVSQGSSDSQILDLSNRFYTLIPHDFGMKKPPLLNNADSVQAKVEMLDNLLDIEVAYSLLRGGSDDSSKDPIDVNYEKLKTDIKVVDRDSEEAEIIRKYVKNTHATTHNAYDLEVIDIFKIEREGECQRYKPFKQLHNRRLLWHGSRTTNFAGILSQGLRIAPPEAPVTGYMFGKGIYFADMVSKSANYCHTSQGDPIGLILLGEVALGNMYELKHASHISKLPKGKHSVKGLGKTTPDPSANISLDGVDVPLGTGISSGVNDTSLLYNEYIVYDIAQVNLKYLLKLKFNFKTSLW

Row | Compound | IC50 (PARP1) [nM] | EC50 (DLD-1 BRCA2(−/−) cells) [nM] | EC50 [1] [nM] | IC50 (PARP2) [nM] | Papp A→B at 2 h, 10 μM (MDR1) [×10⁻⁶ cm/s] | Papp B→A at 2 h, 10 μM (MDR1) [×10⁻⁶ cm/s] | HLM Clh [3] [mL/min/kg] | efflux ratio at 2 h, 10 μM (MDR1) | Papp A→B at 2 h, 10 μM (BCRP) [×10⁻⁶ cm/s] | Papp B→A at 2 h, 10 μM (BCRP) [×10⁻⁶ cm/s] | efflux ratio at 2 h, 10 μM (BCRP) | HHEP Clh [2] [mL/min/kg] | EC50 (DLD-1 parental cells) [nM]
1 | CNC(=O)c1ccc(N2CCN(Cc3ccc4c5c(c(=O)[nH]c4c3)CCO5)CC2)c(C)n1 [Comp. Ex. 1, N,6-dimethyl-5-[4-({4-oxo-2H,3H,5H-furo[3,2-c]quinolin-7-yl}methyl)piperazin-1-yl]pyridine-2-carboxamide, reference compound] |  | 2 | 0.6 |  | 7.5 | 39.8 | <4 |  |  |  |  | <3.3 | 
2 | CNC(=O)c1ccc(N2CCN(Cc3ccc4c5c(c(=O)[nH]c4c3)CCO5)CC2)c(Cl)n1 [Comp. Ex. 2, 6-chloro-N-methyl-5-[4-({4-oxo-2H,3H,5H-furo[3,2-c]quinolin-7-yl}methyl)piperazin-1-yl]pyridine-2-carboxamide, reference compound] |  | 1.7 | 0.7 |  | 5.7 | 29 | 4.2 | 5.1 |  |  |  | 6.6 | 
3 | CNC(=O)c1ccc(N2CCN(Cc3ccc4c([nH]c(=O)c5ccnn54)c3F)CC2)c(F)n1 [Example 1, 6-fluoro-5-[4-({6-fluoro-4-oxo-5H-pyrazolo[1,5-a]quinoxalin-7-yl}methyl)piperazin-1-yl]-N-methylpyridine-2-carboxamide] |  | 4.1 | 2.9 |  | 15.9 | 29.6 |  | 1.87 | 21.7 | 20.4 | 0.95 |  | > 30000
4 | [2H]C([2H])([2H])NC(=O)c1ccc(N2CCN(Cc3ccc4c([nH]c(=O)c5ccnn54)c3F)CC2)c(F)n1 [Example 18] | 6.2 | 1.9 | 1.2 | > 100000 | 15.2 | 22.7 |  | 1.5 | 21.1 | 18.2 | 0.87 |  | > 30000
5 | [2H]C([2H])([2H])NC(=O)c1ccc(N2CCN(Cc3ccc4c([nH]c(=O)c5ccoc54)c3F)CC2)c(F)n1 [Example 30] | 56 | 6.5 | 4.6 | > 100000 |  |  |  |  |  |  |  |  | 

Further molecules by falling EC50 (DLD-1 BRCA2(−/−) cells), results first:

Row | IC50 (PARP1) [nM] | EC50 (DLD-1 BRCA2(−/−) cells) [nM] | EC50 [1] [nM] | IC50 (PARP2) [nM] | Papp A→B at 2 h, 10 μM (MDR1) [×10⁻⁶ cm/s] | Papp B→A at 2 h, 10 μM (MDR1) [×10⁻⁶ cm/s] | HLM Clh [3] [mL/min/kg] | efflux ratio at 2 h, 10 μM (MDR1) | Papp A→B at 2 h, 10 μM (BCRP) [×10⁻⁶ cm/s] | Papp B→A at 2 h, 10 μM (BCRP) [×10⁻⁶ cm/s] | efflux ratio at 2 h, 10 μM (BCRP) | Compound | HHEP Clh [2] [mL/min/kg] | EC50 (DLD-1 parental cells) [nM]
6 |  | 3.2 | 1.6 |  | 19.4 | 31.4 | <4 |  | 26.7 | 24.3 |  | CNC(=O)c1ccc(N2CCN(Cc3ccc4c5c(c(=O)[nH]c4c3F)CCO5)CC2)c(F)n1 [Example 9, 6-fluoro-5-[4-({6-fluoro-4-oxo-2H,3H,5H-furo[3,2-c]quinolin-7-yl}methyl)piperazin-1-yl]-N-methylpyridine-2-carboxamide] | <3.3 | > 30000
7 |  | 1.6 | 0.4 |  | 6.6 | 32.3 | 7.2 | 5 |  |  |  | CNC(=O)c1ccc(N2CCN(Cc3cc(F)c4c5c(c(=O)[nH]c4c3)COC5)CC2)c(F)n1 [Comp. Ex. 3, 6-fluoro-5-(4-((9-fluoro-4-oxo-1,3,4,5-tetrahydrofuro[3,4-c]quinolin-7-yl)methyl)piperazin-1-yl)-N-methylpicolinamide, reference compound] | 7.1 | 
8 | 40 | 0.99 | 1.1 | > 100000 |  |  |  |  |  |  |  | [2H]C([2H])(c1ccc2c([nH]c(=O)c3c(F)cnn32)c1F)N1CCN(c2ccc(C(=O)NC)nc2F)CC1 (single isomer, unassigned) [Example 34] |  | 
9 | 11 | 0.96 | 0.79 | > 100000 |  |  |  |  |  |  |  | [2H]C([2H])([2H])NC(=O)c1ccc(N2CCN(Cc3ccc4c([nH]c(=O)c5c(F)cnn54)c3F)CC2)c(F)n1 (single isomer, unassigned) [Example 33] |  | 
